The test system of one test is gastric antrum. As to the kind of experiment: Antral motility in conscious fasted dogs. It is filed as in vivo, Mongrel dogs. The note with it: 60 min after injection relative to Phase III of MMC. Here is the method: This contractile activity is thought to enhance gastric emptying by more rapidly reducing food particle size for passage through the pylorus.
Mongrel dogs of either sex were surgically implanted with strain gauge force transducers on the gastric antrum at 6 cm, 4 cm and 2 cm from the gastroduodenal junction. The dogs were allowed two weeks to recover and were trained to stand quietly in Pavlov slings.
Dogs were fasted for 18 to 24 hours prior to each experiment to record a pattern of antral contractile activity characteristic of the fasted state called the Migrating Motor Complex (MMC). The period of the MMC cycle is approximately 90 to 120 minutes and consists of 45 to 60 minutes of motor quiescence (Phase I) 30 to 45 minutes of intermittent activity (Phase II) and 10 to 15 minutes of intense contractile activity (Phase III). A control MMC period is recorded prior to compound administration to obtain the length of the quiescent Phase I period. Compound is given intravenously at the end of Phase III of the control MMC cycle and a subsequent Phase I period is examined for the ability of the compound to produce contractions. A response index is calculated as the mean 10 minute motility index for 60 minutes following injection of test compound divided by the 10 minute motility index obtained for the previous Phase III period of the MMC. The response index represents an estimate of the fraction of maximal antral motor activity produced by the compound.

Another test relates to 5-HT3. As to the kind of experiment: Bezold-Jarisch Reflex test (5-HT induced bradycardia in pentobarbital anesthetized mice). The note with it: 5-HT 0.25 mg/kg i.v. induced bradycardia, 30 min. It is filed as in vivo. Here is the method: 5-HT3 antagonism can be determined for a compound by subjecting the compound to a Bezold-Jarisch Reflex test which is described and reported by Saxena, P.R., and Lawang, A.; Arch. Int.
The test compound is administered i.p. (mg/kg) to a group of 3 mice. Thirty minutes later a 5-HT (0.25 mg/kg i.v.) induced bradycardia is recorded in pentobarbital anesthetized animals.

For another test, the system named is beagle dogs. As to the kind of experiment: Antiemetic activity against cisplatin in beagle dogs. In kind it is in vivo. The conditions noted are these: cisplatin 3 mg/kg i.v., 5 hours. Here is the method: Antiemetic activity of test compound against cisplatin was determined in beagle dogs. Dogs are pretreated I.V. with a test compound dissolved in DMSO thirty minutes before administration of cisplatin 3 mg/kg.i.v. with a second dose of compounds given i.v. two hours after cisplatin administration. Emetic episodes are counted for 5 hours following cisplatin administration.
Per cent inhibition of emesis for each animal is determined by the following formula: [formula] A mean per cent inhibition of emesis is determined for at least 4 dogs.

Another test has as its system rats. As to the kind of experiment: Rat gastric emptying of a test meal. The note with it: 30 min before test meal, 60 min after meal. It is filed as in vivo, Male Charles River Rats, Crl: COBS, CD (SD) BR Strain. Here is the method: A test meal for measuring gastric emptying in rats was prepared. Ten grams of methylcellulose (2% solution=15 centipoises; Aldrich Chemical Company, Milwaukee, Wis.) was added to 200 ml of cold water and mixed at 20,000 rpm in a Waring blender to insure dispersion and hydration of the methylcellulose. In addition, two beef bouillon cubes (Wyler's, Columbus, Ohio) dissolved in 100 ml of warm water was added to the mixture, followed by 16 g of casein (Hammersten, Schwartz/Mann, Orangeburg, N.Y.), 8 g of powdered confectioners sugar and 8 g of cornstarch. The ingredients were mixed for two minutes at 20,000 rpm and the resultant test meal was refrigerated for 48 hours to allow trapped air to escape.
Male Charles River Rats, Crl: COBS, CD (SD) BR Strain, 180-200 g body weight, were used in groups of six animals. The animals were food deprived for 24 hours prior to the experiment with access to water ad libitum. The compounds to be evaluated were prepared in a 0.5% aqueous methylcellulose solution. If insoluble, the mixture was homogenized for two minutes at 5500 rpm using a Try-R-Stir-R. The compounds were injected intraperitoneally at a volume of 5 ml/kg, 30 minutes before the test meal, (3.0 ml/rat i.g.). Control animals received only the vehicle. Sixty minutes after the test meal, the rats were sacrificed by cervical dislocation. The stomachs were removed intact and weighed. The stomachs were kept opened, gently rinsed with tap water, blotted dry with paper towelling, and the empty stomach weighed. The difference between the weight of the full and empty stomach is indicative of the amount of meal remaining in the stomach. The amount of meal remaining in the stomach was subtracted from the weight of 3 ml of the test meal to determine the amount of food emptied from the stomach during the test. Weight of the test meal was determined by weighing three samples (3 ml) at the beginning and three samples at the end of each experiment and calculating the mean. The mean and standard error of the amount of meal emptied were calculated.

The results in this text go back to patent US4992461A, “N-azabicyclo(3.3.0)octane amides of aromatic acids, compositions, and methods of use thereof” (G. D. Searle & Co., priority 1989, dated 1991).

Counter-ions that a name gives are not always drawn.

As for `COc1cc(N)c(Cl)cc1C(=O)NC[C@@H]1CCN2CCC[C@@H]12` (relative stereo) [Example 5, cis-4-amino-5-chloro-N-[(hexahydro-1H-pyrrolizin-1-yl)methyl]-2-methoxybenzamide,dihydrochloride], the “RESPONSE INDEX” value in the test on gastric antrum (0.3 mg/kg iv) is 0.37; with gastric antrum (1.0 mg/kg iv), 0.49; with gastric antrum (3.0 mg/kg iv), 0.58. For the same compound, the figures for the “% INHIBITION” value in the test with 5-HT3 (5.0 mg/kg ip) and with 5-HT3 (10.0 mg/kg ip) were 47% and 85%, respectively. Further, the “% INHIBITION OF CISPLATIN EMESIS” value in the test with beagle dogs (0.3 mg/kg iv) is 27.0%; with beagle dogs (3.0 mg/kg iv), 95.5%. For the same compound, the “% INCREASE IN GASTRIC EMPTYING” value worked out at 2.5% in the test on rats (1.0 mg/kg ip), 9.4% in the test on rats (3.0 mg/kg ip) and 15.8% with rats (10.0 mg/kg ip).

Turning to `COc1cc(N)c(Cl)cc1C(=O)NC[C@H]1CCN2CCC[C@@H]12` (relative stereo) [Example 7, trans-4-amino-5-chloro-N-[(hexahydro-1H-pyrrolizin-1-yl)-methyl]-2-methoxybenzamide,dihydrochloride], the “RESPONSE INDEX” value in the test with gastric antrum (3.0 mg/kg iv) was 0.40. In addition, the “% INHIBITION” value in the test on 5-HT3 (2.5 mg/kg ip) was 55%; with 5-HT3 (5.0 mg/kg ip), 61%; with 5-HT3 (10.0 mg/kg ip), 86%. The “% INCREASE IN GASTRIC EMPTYING” value in the test on rats (1.0 mg/kg ip) was 3.1%; with rats (3.0 mg/kg ip), 0.9%; with rats (10.0 mg/kg ip), -6.9%.

For the compound `COc1cc(N)c(Cl)cc1C(=O)NC1CCN(CCCOc2ccc(F)cc2)CC1OC` (centres unmarked) [Cisapride, cisapride], the “RESPONSE INDEX” value with gastric antrum (0.1 mg/kg iv) turned out to be 0.45; in the test on gastric antrum (0.3 mg/kg iv), 0.54; in the test on gastric antrum (1.0 mg/kg iv), 0.41. Moreover, the “% INHIBITION” value in the test on 5-HT3 (2.5 mg/kg ip) was found to be 49%; with 5-HT3 (5.0 mg/kg ip), 54%; in the test with 5-HT3 (10.0 mg/kg ip) it was 78%. Also, the entries for the “% INHIBITION OF CISPLATIN EMESIS” value in the test on beagle dogs (0.3 mg/kg iv) and in the test on beagle dogs (1.0 mg/kg iv) were -2.3% and 91.0%, respectively. In addition, the “% INCREASE IN GASTRIC EMPTYING” value is listed as 9.8% in the test with rats (1.0 mg/kg ip), 15.4% in the test on rats (3.0 mg/kg ip) and 25.0% with rats (10.0 mg/kg ip).

For the compound `CN1C2CCC1CC(OC(=O)c1c[nH]c3ccccc13)C2` (centres unmarked) [ICS 205-930], the “% INHIBITION OF CISPLATIN EMESIS” value in the test on beagle dogs (.005 mg/kg iv) turned out to be 60.8%; in the test on beagle dogs (.05 mg/kg iv) it was 100.0%.

Consider `CCN(CC)CCNC(=O)c1cc(Cl)c(N)cc1OC` [Metoclopramide, metoclopramide], for which the figures for the “RESPONSE INDEX” value in the test on gastric antrum (1.0 mg/kg iv) and in the test with gastric antrum (3.0 mg/kg iv) were 0.23 and 0.65, respectively. In addition, the “% INHIBITION” value in the test on 5-HT3 (10.0 mg/kg ip) came to 40%. Moreover, the “% INHIBITION OF CISPLATIN EMESIS” value with beagle dogs (0.3 mg/kg iv) came out at 19.5%; in the test on beagle dogs (3.0 mg/kg iv), 99.9%. Further, the “% INCREASE IN GASTRIC EMPTYING” value in the test with rats (1.0 mg/kg ip) amounted to 2.6%; in the test with rats (3.0 mg/kg ip), 11.2%; in the test with rats (10.0 mg/kg ip), 34.1%.
